According to patent US9290765B2, “Protection against endothelial barrier dysfunction through inhibition of the tyrosine kinase abl-related gene (ARG)” (VERENIGING VOOR CHRISTELIJK HOGER ONDERWIJS, …, priority 2011, dated 2016):

Key:
HUVECs [1] = experiment: Electrical Cell-substrate Impedance Sensing (ECIS) of HUVEC monolayers, thrombin stimulation; format: cell-based, human
Procedure: (§1) For ECIS measurements, cells were trypsinized and seeded in 1:1 density on gelatine-coated ECIS arrays, each containing 8 wells with 10 gold electrodes/well (8 W10E, Applied Biophysics, Troy, N.Y., USA). Culture medium was refreshed 24 h after seeding, while experiments were performed 48 h after seeding. For pretreatment, designated pharmacological inhibitors or vector were dissolved in M199 supplemented with 1% HSA. After 90 min of pretreatment, thrombin was added directly to the cells for a final concentration of 1 U/mL. During stimulation impedance was measured at multiple frequencies to allow for calculation of resistance attributable to cell-cell adhesion (Rb) and resistance attributable to cell-matrix interaction (alpha). The absolute resistance was measured, while the relative resistance was calculated by normalization to the time point just before addition of the thrombin, to correct for baseline differences.

HUVECs [2] = experiment: HRP passage across thrombin-stimulated HUVEC monolayers on porous filters; format: cell-based, human; settings: for effect on thrombin-induced HRP passage: HUVECs
Procedure: (§2) Endothelial barrier function was evaluated with horse radish peroxidase (HRP) passage and Electrical Cell-substrate Impedance Sensing (ECIS). For measurement of HRP passage, confluent cells were seeded in 1:1 density on 0.33 cm^2 Costar polycarbonate filters, pore-size 3.0 μm (Corning, Lowell, Mass., USA) and grown to confluence in 4 or 5 days, with change of culture medium every other day. For pretreatment, pharmacological inhibitors or vector were dissolved in M199 supplemented with 1% human serum albumin (HSA, Sanquin CLB), and after removal of culture medium, solutions were added to the upper compartment of the filters during 60 min. For stimulation, pretreatment medium was changed for 1% HSA/M199 containing designated inhibitors, HRP 5 μg/mL (Sigma Aldrich) and thrombin 1 U/mL. 1% HSA/M199 was added to the lower compartment. At indicated time points samples were taken from the lower compartment; HRP concentration in samples was detected by measuring chemoluminiscence after addition of TMB/E (Upstate/Millipore).

RhoA = experiment: G-LISA RhoA Activity Assay in HUVEC lysates; format: cell-based, human; settings: HUVECs; imatinib 10 μM; thrombin 1 U/mL
Procedure: After stimulation, cells were washed with ice-cold PBS and lysed with lysis buffer containing […] Tris/HCl pH 8.0, 0.15M NaCl, 0.09M KCl, 2 mM EDTA/NaOH pH 8.0, 5% Igepal, and 0.5% Triton X-100, further supplemented with PhosStop […] inhibitor (Roche Diagnostics, Mannheim, Germany), and Complete EDTA-free […] inhibitor (Roche Diagnostics). After centrifugation of the cell lysates, the supernatant was snap-frozen and stored at −80° C. Relative RhoA activity was determined with a G-LISA RhoA Activity Assay (Cytoskeleton Inc, Denver, Colo., USA), according to the manufacturers protocol.

HUVECs [3] = experiment: Immunofluorescence staining of VE-cadherin, β-catenin and F-actin in thrombin-stimulated HUVECs; format: cell-based, human
Procedure: Cells were seeded on glass coverslips coated with gelatine 1% and pretreated with glutaraldehyde 0.5% (Fluka, St. Gallen, Switzerland). Cells were seeded in 1:1 density and grown to confluence in 48-72 hours. For pretreatment, culture medium was changed to 1% HSA/M199, containing pharmacological inhibitors or vector. After 60 min of pretreatment, thrombin was added directly to the wells for a final concentration of 1 U/mL. At indicated time points, medium was removed and warm paraformaldehyde 2% (Sigma Aldrich) was added to the cells, while kept on ice for 15 min. Cells were permeabilized with Triton X-100 0.05% (Sigma Aldrich) in phosphate-buffered saline (PBS), and incubated overnight with primary antibodies for β-catenin (1:100), VE-cadherin (1:400) or Arg (1:150) in 0.1% HSA/PBS. Subsequently, cells were washed and incubated with FITC-labeled secondary antibodies (Invitrogen, Paisly, United Kingdom) and rhodamine/phalloidin (Invitrogen) for 1 h at room temperature. Cells were washed and sealed in Vectashield mounting medium containing DAPI (Vector Laboratories Inc., Burlingham, Calif., USA) for nuclear staining. Immunofluorescent imaging was performed with an Axiovert 200 Marianas™ inverted wide-field fluorescence microscope, using a 40× Zeiss air lens (NA 0.75) and a 63× Zeiss oil lens (NA 1.4). […]

[4] = system: human pulmonary microvascular endothelial cells (HPMVECs); experiment: HRP passage over HPMVEC monolayers, thrombin stimulation; format: cell-based; settings: imatinib 10 μM, thrombin 1 U/mL
Procedure: as §2

[5] = system: human foreskin microvascular endothelial cells (HFMVECs); experiment: ECIS of HFMVEC monolayers, thrombin stimulation; format: cell-based; settings: imatinib 10 μM, thrombin 1 U/mL
Procedure: as §1

[6] = system: human pulmonary microvascular endothelial cells (HPMVECs); experiment: ECIS of HPMVEC monolayers, thrombin stimulation; format: cell-based; settings: imatinib 10 μM, thrombin 1 U/mL
Procedure: as §1

[7] = HUVECs transfected with Arg siRNA, imatinib 10 μM, thrombin 1 U/mL
[8] = HUVECs, imatinib 10 μM, thrombin 1 U/mL

| Structure (SMILES) | basal endothelial barrier function / basal endothelial resistance (ECIS) (HUVECs [1]; HUVECs, no thrombin) | effect on thrombin-induced decrease in endothelial resistance (thrombin response, words) (HUVECs [1]; HUVECs, thrombin 1 U/mL) | effect on thrombin-induced HRP passage (HUVECs [2]; thrombin 1 U/mL) | thrombin-induced RhoA activity (RhoA) | thrombin-induced loss of VE-cadherin and β-catenin from the membrane (HUVECs [3]; imatinib 10 μM, thrombin 30 min) | F-actin organization after thrombin (HUVECs [3]; imatinib pretreated, thrombin 15 min) | thrombin-induced macromolecule passage [4] | thrombin-induced maximal drop in endothelial resistance [5] | decrease in normalized resistance in Arg deficient cells, imatinib pretreatment (HUVECs [1]; [7]) | thrombin response in c-Abl deficient cells (HUVECs [1]; HUVECs transfected with c-Abl siRNA, imatinib 10 μM, thrombin 1 U/mL) | maximal drop in electrical resistance (HUVECs [1]; HUVECs, imatinib 10 μM, Y-27632 10 μM, thrombin 1 U/mL, FIGS. 2C and D) | maximal decrease in normalized Rb (cell-cell interaction) (HUVECs [1]; [8]) | thrombin-induced drop in cell-matrix interaction (alpha) (HUVECs [1]; [8]) | maximal decrease in normalized resistance (HUVECs [1]; HUVECs, thrombin 1 U/mL, FIGS. 1B and 1C) | effect on thrombin-induced decrease in endothelial resistance (thrombin response, words) (HUVECs [1]; HUVECs, thrombin 1 U/mL, listed as Imatinib) | maximal drop in endothelial resistance [6] | effects on Rb and alpha ([6]; compared with HUVECs) | HRP passage in Arg deficient cells, imatinib vs DMSO pretreatment (HUVECs [2]; [7]) | inhibition at 10 µM (HUVECs [2]; Homo sapiens, HUVEC, read-out: inhibition of thrombin-induced HRP passage) [%] |
| --- | --- | --- | --- | --- | --- | --- | --- | --- | --- | --- | --- | --- | --- | --- | --- | --- | --- | --- | --- |
| COc1cc2ncc(-c3ccccc3)nc2cc1OC [AG1296] | improved | did not inhibit | – | – | – | – | – | – | – | – | – | – | – | – | – | – | – | – | – |
| C[C@@H](N)[C@H]1CC[C@H](C(=O)Nc2ccncc2)CC1 [Y-27632] | – | reduced | reduced | – | – | – | – | – | – | – | – | – | – | – | – | – | – | – | – |
| Cc1ccc(NC(=O)c2ccc(CN3CCN(C)CC3)cc2)cc1Nc1nccc(-c2cccnc2)n1 [imatinib, 4-[(4-methyl-1-piperazinyl)methyl]-N-[4-methyl-3-[[(4-(3-pyridinyl)-2-pyrimidinyl]amino]-phenyl]benzamidemethane sulfonate] | – | reduced | reduced | not affected | partly reversed | not organized in F-actin stress fibers | reduced | attenuated | no additive effect | still attenuated | −0.44±0.02 | −0.87±0.03 | attenuation | −0.41±0.03 | attenuated | attenuated | Comparable effects | significantly lower | 35 to 44 |
